Values after ≈ are worked out from the molar mass of the structure shown. Active and inactive are the calls of the source. The rule behind the calls is not given here.
Legend:
Streptococcus pneumoniae [1] = assay: Inhibition of DHPS in Streptococcus pneumoniae assessed as antibacterial activity by measuring inhibition zone at 5 mg/mL incubated for 24 hrs by disk diffusion method
Bacillus subtilis [2] = assay: Inhibition of DHPS in Bacillus subtilis assessed as antibacterial activity by measuring inhibition zone at 5 mg/mL incubated for 24 hrs by disk diffusion method
[3] = system: Staphylococcus epidermidis; assay: Inhibition of DHPS in Staphylococcus epidermidis assessed as antibacterial activity by measuring inhibition zone at 5 mg/mL incubated for 24 hrs by disk diffusion method
Escherichia coli [4] = assay: Inhibition of DHPS in Escherichia coli assessed as antibacterial activity by measuring inhibition zone at 5 mg/mL incubated for 24 hrs by disk diffusion method
Proteus vulgaris [5] = assay: Inhibition of DHPS in Proteus vulgaris assessed as antibacterial activity by measuring inhibition zone at 5 mg/mL incubated for 24 hrs by disk diffusion method
Klebsiella pneumoniae [6] = assay: Inhibition of DHPS in Klebsiella pneumoniae assessed as antibacterial activity by measuring inhibition zone at 5 mg/mL incubated for 24 hrs by disk diffusion method
Streptococcus pneumoniae [7] = assay: Inhibition of DHPS in Streptococcus pneumoniae assessed as antibacterial activity by measuring inhibition of bacterial growth incubated for 24 hrs by microbroth dilution method
Bacillus subtilis [8] = assay: Inhibition of DHPS in Bacillus subtilis assessed as antibacterial activity by measuring inhibition of bacterial growth incubated for 24 hrs by microbroth dilution method
[9] = system: Staphylococcus epidermidis; assay: Inhibition of DHPS in Staphylococcus epidermidis assessed as antibacterial activity by measuring inhibition of bacterial growth incubated for 24 hrs by microbroth dilution method
Escherichia coli [10] = assay: Inhibition of DHPS in Escherichia coli assessed as antibacterial activity by measuring inhibition of bacterial growth incubated for 24 hrs by microbroth dilution method
Proteus vulgaris [11] = assay: Inhibition of DHPS in Proteus vulgaris assessed as antibacterial activity by measuring inhibition of bacterial growth incubated for 24 hrs by microbroth dilution method
Klebsiella pneumoniae [12] = assay: Inhibition of DHPS in Klebsiella pneumoniae assessed as antibacterial activity by measuring inhibition of bacterial growth incubated for 24 hrs by microbroth dilution method
Aspergillus fumigatus [13] = assay: Inhibition of DHPS in Aspergillus fumigatus assessed as antifungal activity by measuring inhibition zone at 5 mg/mL incubated for 48 hrs by disk diffusion method
[14] = system: Syncephalastrum racemosum; assay: Inhibition of DHPS in Syncephalastrum racemosum assessed as antifungal activity by measuring inhibition zone at 5 mg/mL incubated for 48 hrs by disk diffusion method
Geotrichum candidum [15] = assay: Inhibition of DHPS in Geotrichum candidum assessed as antifungal activity by measuring inhibition zone at 5 mg/mL incubated for 48 hrs by disk diffusion method
Aspergillus fumigatus [16] = assay: Inhibition of DHPS in Aspergillus fumigatus assessed as antifungal activity by measuring inhibition of fungal growth incubated for 48 hrs by microbroth dilution method
[17] = system: Syncephalastrum racemosum; assay: Inhibition of DHPS in Syncephalastrum racemosum assessed as antifungal activity by measuring inhibition of fungal growth incubated for 48 hrs by microbroth dilution method
Geotrichum candidum [18] = assay: Inhibition of DHPS in Geotrichum candidum assessed as antifungal activity by measuring inhibition of fungal growth incubated for 48 hrs by microbroth dilution method
[19] = system: Escherichia coli ATCC 25922; assay: Inhibition of DHPS in Escherichia coli ATCC 25922 assessed as inhibition of bacterial growth incubated for 24 hrs in presence of folate precursor, pABA by microbroth dilution method
[20] = system: Escherichia coli ATCC 25922; assay: Inhibition of DHPS in Escherichia coli ATCC 25922 assessed as inhibition of bacterial growth incubated for 24 hrs in presence of folate dependent metabolite, methionine by microbroth dilution method
[21] = system: Syncephalastrum racemosum; assay: Potency index, ratio of amphotericin B MIC to compound MIC for Syncephalastrum racemosum assessed as inhibition of DHPS-mediated fungal growth incubated for 48 hrs by microbroth dilution method
Aspergillus fumigatus [22] = assay: Potency index, ratio of sulfisoxazole MIC to compound MIC for Aspergillus fumigatus assessed as inhibition of DHPS-mediated fungal growth incubated for 48 hrs by microbroth dilution method
[23] = system: Staphylococcus epidermidis; assay: Potency index, ratio of sulfisoxazole MIC to compound MIC for Staphylococcus epidermidis assessed as inhibition of DHPS-mediated bacterial growth incubated for 24 hrs by microbroth dilution method
Klebsiella pneumoniae [24] = assay: Potency index, ratio of sulfisoxazole MIC to compound MIC for Klebsiella pneumoniae assessed as inhibition of DHPS-mediated bacterial growth incubated for 24 hrs by microbroth dilution method
Escherichia coli [25] = assay: Potency index, ratio of sulfisoxazole MIC to compound MIC for Escherichia coli assessed as inhibition of DHPS-mediated bacterial growth incubated for 24 hrs by microbroth dilution method
Streptococcus pneumoniae [26] = assay: Potency index, ratio of sulfisoxazole MIC to compound MIC for Streptococcus pneumoniae assessed as inhibition of DHPS-mediated bacterial growth incubated for 24 hrs by microbroth dilution method
Geotrichum candidum [27] = assay: Potency index, ratio of sulfisoxazole MIC to compound MIC for Geotrichum candidum assessed as inhibition of DHPS-mediated fungal growth incubated for 48 hrs by microbroth dilution method
Bacillus subtilis [28] = assay: Potency index, ratio of sulfisoxazole MIC to compound MIC for Bacillus subtilis assessed as inhibition of DHPS-mediated bacterial growth incubated for 24 hrs by microbroth dilution method

Row | inhibition zone (IZ) (Streptococcus pneumoniae [1]) | inhibition zone (IZ) (Bacillus subtilis [2]) | inhibition zone (IZ) [3] | inhibition zone (IZ) (Escherichia coli [4]) | inhibition zone (IZ) (Proteus vulgaris [5]) | inhibition zone (IZ) (Klebsiella pneumoniae [6]) | MIC (Streptococcus pneumoniae [7]) | MIC (Bacillus subtilis [8]) | MIC [9] | MIC (Escherichia coli [10]) | MIC (Proteus vulgaris [11]) | MIC (Klebsiella pneumoniae [12]) | inhibition zone (IZ) (Aspergillus fumigatus [13]) | inhibition zone (IZ) [14] | inhibition zone (IZ) (Geotrichum candidum [15]) | MIC (Aspergillus fumigatus [16]) | MIC [17] | MIC (Geotrichum candidum [18]) | inhibition [19] | inhibition [20] | Structure (SMILES) | other results
1 | 22.2 mm | 23.4 mm | 20.4 mm | 20.2 mm | 17.8 mm | 22.1 mm | 0.98 mg/L (≈ 1.33 µM) | 0.98 mg/L (≈ 1.33 µM) | 3.9 mg/L (≈ 5.29 µM) | 3.9 mg/L (≈ 5.29 µM) | 7.81 mg/L (≈ 10.6 µM) | 0.98 mg/L (≈ 1.33 µM) | 19.3 mm | 19.9 mm | 21.2 mm | 3.9 mg/L (≈ 5.29 µM) | 3.9 mg/L (≈ 5.29 µM) | 1.95 mg/L (≈ 2.64 µM) | inactive | inactive | CN/C(S[C@@H]1O[C@H](COC(C)=O)[C@@H](OC(C)=O)[C@H](OC(C)=O)[C@H]1OC(C)=O)=C(/C#N)C(=O)Nc1ccc(S(=O)(=O)Nc2onc(C)c2C)cc1 | Ratio [21]: 1; Ratio (Aspergillus fumigatus [22]): 4 to 6; Ratio [23]: 2; Ratio (Klebsiella pneumoniae [24]): 8; Ratio (Escherichia coli [25]): 4; Ratio (Streptococcus pneumoniae [26]): 2; Ratio (Geotrichum candidum [27]): 3 to 5
2 | 21.7 mm | 23.8 mm | 20.1 mm | 21.2 mm | 20.1 mm | 24.2 mm | 0.98 mg/L (≈ 2.26 µM) | 0.49 mg/L (≈ 1.13 µM) | 3.9 mg/L (≈ 9 µM) | 1.95 mg/L (≈ 4.5 µM) | 3.9 mg/L (≈ 9 µM) | 0.49 mg/L (≈ 1.13 µM) | 22.3 mm | 20.4 mm | 25.2 mm | 0.49 mg/L (≈ 1.13 µM) | 3.9 mg/L (≈ 9 µM) | 0.24 mg/L (≈ 0.554 µM) | inactive | inactive | C=CCN/C(S)=C(/C#N)C(=O)Nc1ccc(S(=O)(=O)Nc2onc(C)c2C)cc1 | Ratio [21]: 2; Ratio (Aspergillus fumigatus [22]): 7; Ratio [23]: 2; Ratio (Klebsiella pneumoniae [24]): 4; Ratio (Bacillus subtilis [28]): 2; Ratio (Geotrichum candidum [27]): 6
